What was measured:
[1] = tested on: A549 cells; test: MTT cell viability assay, A549 cells; format: cell-based; settings: Homo sapiens, 24 h, 0–200 µM, read-out: IC50 ± SEM of NSCLC cells, A549
Protocol: (§1) NSCLC cells were cultured overnight and treated with various concentrations (0–200 µM) of resveratrol derivatives (RD1-RD5) and resveratrol for 24 h, and then cell viability was analyzed by the 3-(4, 5-dimethylthiazolyl-2)-2, 5-diphenyltetrazolium bromide (MTT) assay to evaluate the percentage of cell viability. All of the data were calculated on the basis of the results of three replicated samples. […] The difference of the structure at C-4 was that the hydroxyl group of RD2 was modified to the methoxy group of RD3 and at C-3, the methoxy group of RD2 was changed to the hydroxyl group of RD3. […] Furthermore, resveratrol decreased cell viability in NSCLC cells (A549, H23, and H460) with the IC50 at more than 200 µM which was the same RD3 (Figure 2a–d). This different action on cancer cells as a result of chemical structure modification has provided an insight for the structure–activity relationship that may facilitate the further development of the potent compound from the lead structure of resveratrol derivatives. Cell viability was investigated by MTT colorimetric assay. All cell lines were cultured at the density of 1 × 10^4 cells per well in a 96-well tissue culture plate and incubated in an incubator. After that, cells were treated with various concentrations of RD1-RD5 for 24 h at 37 °C and analyzed by the MTT assay according to the manufacturer’s protocol (Sigma Chemical, St. Louis, MO, USA). In calculating the cell viability by a microplate reader (Anthros, Durham, NC, USA), the measured absorbance of treated cells were divided by the value of untreated cells and are reported as a percentage.

[2] = tested on: H23 cells; test: MTT cell viability assay, H23 cells; format: cell-based; settings: Homo sapiens, NCI-H23, 24 h, 0–200 µM, read-out: IC50 ± SEM of NSCLC cells, H23
Protocol: as §1

[3] = tested on: H460 cells; test: MTT cell viability assay, H460 cells; format: cell-based; settings: Homo sapiens, NCI-H460, 24 h, 0–200 µM, read-out: IC50 ± SEM of NSCLC cells, H460
Protocol: as §1

[4] = tested on: p-Akt/Akt in A549 cells; test: Western blot of p-Akt/Akt, A549 cells; format: cell-based, human; settings: A549 cells, 100 μM, 12 h, vs untreated control
Protocol: (§2) NSCLC cells (A549 and H23) were treated with RD2 and RD3 (10–100 μM) for 12 h. After which, all cells were collected and the expression levels of Akt, p-Akt, mTOR, and p-mTOR were investigated by Western blot analysis (Figure 5a, Figure 6a, Figure 7a and Figure 8a). […] Immunofluorescence staining of Akt, p-Akt, mTOR, and p-mTOR was performed in RD2 and RD3 treated cells. The results further confirm the effect of RD2 and RD3 on the Akt/mTOR pathway.
(§3) Western blotting was used to detect the presence of specific protein. Cells were seed at a density of 4 × 10^5 cells/well in 6 well plates overnight. Cells were treated with various concentrations RD1-RD5 were treated for 12 h. After treatment, the apoptosis cells were collected by centrifuging media with 1500 rpm for 5 min and aspirating supernatants. Then, cells were washed with cold 1× PBS and incubated with 1X RIPPA 40 µL containing 10× RIPA buffer 100 µL, protease inhibitors (PI) 100 µL, PMSF 10 µL, and Triton × 10 µL for 30 min on ice. BCA protein assay kit from Pierce Biotechnology (Rockford, IL, USA) analyzed protein concentrations. The extracted proteins were separated by 7.5–10% sodium dodecyl sulfate polyacrylamide gel electrophoresis (SDS-PAGE) and transferred to polyvinylidene difluoride membrane (PVDF). Then, the membranes were blocked with 5% non-fat milk powder for 2 h. After that, they were incubated with primary antibody at 4 °C Akt (#9272), phosphorylated Akt (#4060), mTOR (#2983S), and p-mTOR (#5536S) overnight. The membranes were washed with Tris-buffered saline/Tween 20 3 times and incubated with secondary antibodies for 2 h. Finally, the protein bands were detected using chemiluminescence substrate and exposed by Chemiluminescent ImageQuant LAS4000. Protein bands were analyzed using Image J software.

[5] = tested on: p-mTOR/mTOR in A549 cells; test: Western blot of p-mTOR/mTOR, A549 cells; format: cell-based, human; settings: 100 μM, 12 h, vs untreated control
Protocol: as §2, §3

[6] = tested on: DP cells; test: MTT cell viability assay, normal dermal papilla (DP) cells; format: cell-based; settings: 24 h
Protocol: To confirm the selective cytotoxicity of resveratrol derivatives (RD2 and RD3) in cancer cells, resveratrol derivatives (RD2 and RD3) and resveratrol were determined for the cytotoxic profile in normal human cells, dermal papilla (DP).
Cell viability was investigated by MTT colorimetric assay. All cell lines were cultured at the density of 1 × 10^4 cells per well in a 96-well tissue culture plate and incubated in an incubator. After that, cells were treated with various concentrations of RD1-RD5 for 24 h at 37 °C and analyzed by the MTT assay according to the manufacturer’s protocol (Sigma Chemical, St. Louis, MO, USA). In calculating the cell viability by a microplate reader (Anthros, Durham, NC, USA), the measured absorbance of treated cells were divided by the value of untreated cells and are reported as a percentage.

[7] = tested on: p-mTOR/mTOR in H23 cells; test: Western blot of p-mTOR/mTOR, H23 cells; format: cell-based, human; settings: 100 μM, 12 h, vs untreated control
Protocol: as §2, §3

[8] = tested on: p-Akt/Akt in H23 cells; test: Western blot of p-Akt/Akt, H23 cells; format: cell-based, human; settings: 100 μM, 12 h, vs untreated control
Protocol: as §2, §3

Row | IC50 [1] [µM] | IC50 [3] [µM] | SMILES | IC50 [2] [µM] | p-Akt/Akt protein expression levels [4] | p-mTOR/mTOR protein expression levels [5] | effect on cell viability percentages in DP cells ([6]; normal human dermal papilla cells) | IC50 ([6]; Human dermal papilla cell, 0–200 µM, read-out: IC50 ± SEM of DP cells) [µM] | p-mTOR/mTOR protein expression levels [7] | p-Akt/Akt protein expression levels [8]
1 | 113 ± 25.5 | 122 ± 28.6 | COc1ccc(CCc2cc(OC)c(O)c(OC)c2)cc1O [RD4, 4-(3-hydroxy-4-methoxyphenethyl)-2,6-dimethoxyphenol] | 109 ± 17.3 | – | – | – | – | – | –
2 | 185 ± 58.7 | 153 ± 59.6 | COc1cc(CCc2cc(OC)c(O)c(OC)c2)cc(OC)c1O [RD5, 4,4′-(ethane-1,2-diyl)bis(2,6-dimethoxyphenol)] | 82.6 ± 13.1 | – | – | – | – | – | –
3 | > 200 | > 200 | Oc1ccc(C=Cc2cc(O)cc(O)c2)cc1 [Resveratrol, 3,5,4′-trihydroxystilbene] | > 200 | significant decrease | significant decrease | did not significantly affect | > 200 | significant decrease | significant decrease
